From US7842715B2, “N-benzoyl- and N-benzylpyrrolidin-3-ylamines as histamine-3 antagonists” (Wyeth LLC, priority 2006, dated 2010)
Counter-ions that a name gives are not always drawn.

System: not given
Experiment: not given
Conditions: not given

Question: Which melting point does the source give for Cc1ccc(Oc2ccc(C(=O)N3CC[C@H](N4CCCC4)C3)cc2)c(Cl)c1 (as salt: hydrochloride) [Example 40, (3′S)-1′-[4-(2-chloro-4-methylphenoxy)benzoyl]-1,3′-bipyrrolidine] here?
Answer: Its melting point is 124 to 126 °C.

Question: With Cc1ccc(Oc2ccc(C(=O)N3CC[C@H](N4CCCC4)C3)cc2)cc1 (as salt: hydrochloride) [Example 35, (3′S)-1′-[4-(4-methylphenoxy)benzoyl]-1,3′-bipyrrolidine] as the compound, how does the melting point read?
Answer: Its melting point is 98 to 100 °C.

Question: With Cc1cc(Cl)ccc1Oc1ccc(C(=O)N2CC[C@H](N3CCCC3)C2)cc1 (as salt: hydrochloride) [Example 39, (3′S)-1′-[4-(4-chloro-2-methylphenoxy)benzoyl]-1,3′-bipyrrolidine] as the compound, how does the melting point read?
Answer: The melting point was 123 to 125 °C.

Question: For COc1cccc(Oc2ccc(C(=O)N3CC[C@H](N4CCCC4)C3)cc2)c1 (as salt: hydrochloride) [Example 36, (3′S)-1′-[4-(3-methoxyphenoxy)benzoyl]-1,3′-bipyrrolidine], which melting point is on record?
Answer: Its melting point is 82 to 84 °C.

Target: T1, Histamine Receptor H3 (Homo sapiens, UniProt Q9Y5N1)
T1 construct: expressed in transfected cells
T1 sequence (Q9Y5N1 whole entry): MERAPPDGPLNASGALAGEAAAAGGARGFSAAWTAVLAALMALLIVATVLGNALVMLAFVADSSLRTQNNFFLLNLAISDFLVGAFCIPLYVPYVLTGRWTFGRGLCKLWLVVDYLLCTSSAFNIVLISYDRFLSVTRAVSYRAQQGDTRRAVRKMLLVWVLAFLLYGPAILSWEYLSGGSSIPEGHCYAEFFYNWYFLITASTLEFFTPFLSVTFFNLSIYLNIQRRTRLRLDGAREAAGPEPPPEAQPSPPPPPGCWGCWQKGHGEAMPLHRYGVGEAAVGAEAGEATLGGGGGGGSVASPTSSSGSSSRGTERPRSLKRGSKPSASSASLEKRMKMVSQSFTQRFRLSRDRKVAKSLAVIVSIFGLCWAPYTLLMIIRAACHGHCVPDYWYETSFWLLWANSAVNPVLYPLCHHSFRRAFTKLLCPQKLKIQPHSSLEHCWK
Experiment: Cyclic AMP assay for histamine receptor H3 antagonism activity
Assay type: cell-based
Conditions: stable H3 cells; histamine plus 10 μM forskolin; 30 min at 30° C.; read-out: cAMP Kb
Protocol: Cyclic AMP Assay for Histamine Receptor H3 Antagonism Activity.
Stable H3 cells are maintained in tissue culture flask in DMEM with high glucose, 10% FBS, 1× pen/strep, 500 ug/ml GY18, until experiment. Culture media is removed and cells are washed twice with PBS w/ Ca++ and Mg++ plus 500 μM IBMX. Cells are then detached by tapping on the side of the flask and resuspend in the same buffer. Two thousand cells/well are incubated with […] histamine plus 10 μM forskolin plus various concentrations of compounds in a total volume of 30 μL in 96 well plates for 30 min at 30° C. Final test compound concentrations range from 10^-4M to 10-9.5M at full log dilutions. Cyclic AMP levels are measured using HitHunter cAMP kit from Discoverx, cat# 900041 according to manufacturer's instruction. Chemiluminescence signals are detected using Top Count (Packard). Cyclic AMP levels in control cells receiving 10 μM forskolin plus 100 nM histamine are considered 0%, and in cells receiving 10 uM forskolin plus 100 nM histamine plus 1 μM clobenpropit are considered 100%. Data are expressed as % control and analyzed using Prizm soft ware. The Kb values are calculated using the following equation, KB=EC50 or IC50/[1+(ligand/Kd)].

Question: Which Kb does the source give for Cc1csc2c(Nc3ccc(C(=O)N4CCC(N(C)C)C4)cc3)ncnc12 (stereo not drawn) [Example 7, N-(4-{[3-(dimethylamino)pyrrolidin-1-yl]carbonyl}phenyl)-7-methylthieno[3,2-d]pyrimidin-4-amine] here?
Answer: Its Kb is 14 nM.

Question: For CN(C)C1CCN(C(=O)c2ccc(NC(=O)c3ccc4ccccc4n3)cc2)C1 (stereo not drawn) [Example 17, N-(4-{[3-(dimethylamino)pyrrolidin-1-yl]carbonyl}phenyl)quino-line-2-carboxamide], which Kb is on record?
Answer: The Kb was 57 nM.
